In the NIST ThermoML archive (doi:10.1016/j.jct.2007.04.005):
± gives the expanded uncertainty stated by the source.

Test: xn = mol fraction of the nth substance listed
Details: 318.15 K, Liquid

CCCCCCCCC [nonane] + C1CCCCC1
Details	mass density [kg/m3]
100 kPa, x2 = 0	698.2 ± 0.7
100 kPa, x2 = 0.09303	701 ± 0.7
100 kPa, x2 = 0.2009	704.8 ± 0.7
100 kPa, x2 = 0.3051	708.8 ± 0.7
100 kPa, x2 = 0.417	713.5 ± 0.6
100 kPa, x2 = 0.512	718 ± 0.6
100 kPa, x2 = 0.5996	722.8 ± 0.6
100 kPa, x2 = 0.7052	729.3 ± 0.6
100 kPa, x2 = 0.7993	736.2 ± 0.6
100 kPa, x2 = 0.9039	744.9 ± 0.6
101 kPa, x2 = 0	698.48 ± 0.69
101 kPa, x2 = 0.1022	701.67 ± 0.67
101 kPa, x2 = 0.1548	703.43 ± 0.67
101 kPa, x2 = 0.2009	705.04 ± 0.66
101 kPa, x2 = 0.2591	707.2 ± 0.65
101 kPa, x2 = 0.3306	710.05 ± 0.64
101 kPa, x2 = 0.4003	713.04 ± 0.62
101 kPa, x2 = 0.4596	715.79 ± 0.62
101 kPa, x2 = 0.5321	719.42 ± 0.6
101 kPa, x2 = 0.612	723.86 ± 0.59
101 kPa, x2 = 0.6649	727.05 ± 0.58
101 kPa, x2 = 0.7224	730.84 ± 0.57
101 kPa, x2 = 0.8047	736.83 ± 0.56
101 kPa, x2 = 0.8686	742.07 ± 0.54
101 kPa, x2 = 0.9405	748.72 ± 0.53
2130 kPa, x2 = 0	699.9 ± 0.8
2130 kPa, x2 = 0.09303	702.7 ± 0.8
2130 kPa, x2 = 0.2009	706.5 ± 0.8
2130 kPa, x2 = 0.3051	710.6 ± 0.8
2130 kPa, x2 = 0.417	715.2 ± 0.7
2130 kPa, x2 = 0.512	719.8 ± 0.7
2130 kPa, x2 = 0.5996	724.6 ± 0.7
2130 kPa, x2 = 0.7052	731.1 ± 0.7
2130 kPa, x2 = 0.7993	738 ± 0.7
2130 kPa, x2 = 0.9039	746.7 ± 0.6
4150 kPa, x2 = 0	701.8 ± 0.9
4150 kPa, x2 = 0.09303	704.7 ± 0.9
4150 kPa, x2 = 0.2009	708.4 ± 0.9
4150 kPa, x2 = 0.3051	712.5 ± 0.8
4150 kPa, x2 = 0.417	717.2 ± 0.8
4150 kPa, x2 = 0.512	721.7 ± 0.8
4150 kPa, x2 = 0.5996	726.6 ± 0.8
4150 kPa, x2 = 0.7052	733.1 ± 0.8
4150 kPa, x2 = 0.7993	740 ± 0.7
4150 kPa, x2 = 0.9039	748.7 ± 0.7
6180 kPa, x2 = 0	703.6 ± 1
6180 kPa, x2 = 0.09303	706.4 ± 1
6180 kPa, x2 = 0.2009	710.2 ± 0.9
6180 kPa, x2 = 0.3051	714.3 ± 0.9
6180 kPa, x2 = 0.417	719 ± 0.9
6180 kPa, x2 = 0.512	723.6 ± 0.9
6180 kPa, x2 = 0.5996	728.4 ± 0.9
6180 kPa, x2 = 0.7052	734.9 ± 0.8
6180 kPa, x2 = 0.7993	741.8 ± 0.8
6180 kPa, x2 = 0.9039	750.6 ± 0.8
8210 kPa, x2 = 0	705.3 ± 1.1
8210 kPa, x2 = 0.09303	708.2 ± 1
8210 kPa, x2 = 0.2009	712 ± 1
8210 kPa, x2 = 0.3051	716.1 ± 1
8210 kPa, x2 = 0.417	720.7 ± 1
8210 kPa, x2 = 0.512	725.3 ± 1
8210 kPa, x2 = 0.5996	730.2 ± 0.9
8210 kPa, x2 = 0.7052	736.7 ± 0.9
8210 kPa, x2 = 0.7993	743.6 ± 0.9
8210 kPa, x2 = 0.9039	752.4 ± 0.9
10230 kPa, x2 = 0	707 ± 1.2
10230 kPa, x2 = 0.09303	709.9 ± 1.1
10230 kPa, x2 = 0.2009	713.7 ± 1.1
10230 kPa, x2 = 0.3051	717.8 ± 1.1
10230 kPa, x2 = 0.417	722.5 ± 1.1
10230 kPa, x2 = 0.512	727 ± 1
10230 kPa, x2 = 0.5996	731.9 ± 1
10230 kPa, x2 = 0.7052	738.5 ± 1
10230 kPa, x2 = 0.7993	745.4 ± 1
10230 kPa, x2 = 0.9039	754.2 ± 0.9
11250 kPa, x2 = 0	707.8 ± 1.2
11250 kPa, x2 = 0.09303	710.7 ± 1.2
11250 kPa, x2 = 0.2009	714.5 ± 1.2
11250 kPa, x2 = 0.3051	718.6 ± 1.1
11250 kPa, x2 = 0.417	723.3 ± 1.1
11250 kPa, x2 = 0.512	727.9 ± 1.1
11250 kPa, x2 = 0.5996	732.8 ± 1.1
11250 kPa, x2 = 0.7052	739.4 ± 1
11250 kPa, x2 = 0.7993	746.3 ± 1
11250 kPa, x2 = 0.9039	755.1 ± 1
12260 kPa, x2 = 0	708.6 ± 1.2
12260 kPa, x2 = 0.09303	711.6 ± 1.2
12260 kPa, x2 = 0.2009	715.4 ± 1.2
12260 kPa, x2 = 0.3051	719.5 ± 1.2
12260 kPa, x2 = 0.417	724.2 ± 1.1
12260 kPa, x2 = 0.512	728.8 ± 1.1
12260 kPa, x2 = 0.5996	733.7 ± 1.1
12260 kPa, x2 = 0.7052	740.3 ± 1.1
12260 kPa, x2 = 0.7993	747.1 ± 1
12260 kPa, x2 = 0.9039	756 ± 1
14290 kPa, x2 = 0	710.3 ± 1.3
14290 kPa, x2 = 0.09303	713.2 ± 1.3
14290 kPa, x2 = 0.2009	717 ± 1.3
14290 kPa, x2 = 0.3051	721.1 ± 1.2
14290 kPa, x2 = 0.417	725.8 ± 1.2
14290 kPa, x2 = 0.512	730.4 ± 1.2
14290 kPa, x2 = 0.5996	735.3 ± 1.2
14290 kPa, x2 = 0.7052	741.9 ± 1.1
14290 kPa, x2 = 0.7993	748.9 ± 1.1
14290 kPa, x2 = 0.9039	757.7 ± 1.1
16310 kPa, x2 = 0	711.9 ± 1.4
16310 kPa, x2 = 0.09303	714.8 ± 1.4
16310 kPa, x2 = 0.2009	718.7 ± 1.4
16310 kPa, x2 = 0.3051	722.7 ± 1.3
16310 kPa, x2 = 0.417	727.5 ± 1.3
16310 kPa, x2 = 0.512	732 ± 1.3
16310 kPa, x2 = 0.5996	737 ± 1.2
16310 kPa, x2 = 0.7052	743.6 ± 1.2
16310 kPa, x2 = 0.7993	750.5 ± 1.2
16310 kPa, x2 = 0.9039	759.4 ± 1.1
18340 kPa, x2 = 0	713.5 ± 1.5
18340 kPa, x2 = 0.09303	716.4 ± 1.5
18340 kPa, x2 = 0.2009	720.2 ± 1.4
18340 kPa, x2 = 0.3051	724.3 ± 1.4
18340 kPa, x2 = 0.417	729.1 ± 1.4
18340 kPa, x2 = 0.512	733.6 ± 1.3
18340 kPa, x2 = 0.5996	738.6 ± 1.3
